Here are results for two compounds from publication PMC4873483 (Experimental Animals, 2015).

The conditions of data set [1]: given by mouth over a time frame of up to 4 weeks; cited from earlier work.
A short description of data set [2]: Pharmacokinetic study following repeated s.c. administration of 1-MT. In kind it is in vivo, domestic pigs (Sus scrofa domestica).
For data set [3] the following is noted: mice, within 48 h post dose; cited from earlier work.
For data set [4] the following is noted: repeated oral administration at a saturating dose, rats and dogs; cited from earlier work.
A further data set concerns plasma proteins. The note with it: cited from earlier work.
Data set [5] is described as follows: Pharmacokinetic study following a single s.c. administration of 1-MT. In kind it is in vivo, domestic pigs (Sus scrofa domestica). Particulars: for Cmax: means ± standard deviation.
Data set [6] is classed as in vivo, domestic pigs (Sus scrofa domestica).
[7] abbreviates: 12 h after the final of five daily s.c. injections, n=6.
The mark [8] stands for this setting: German Landrace, pig, plasma, sc, 1 g.
The mark [9] stands for this setting: one-compartment model fitted by numerical simulation to single-dose plasma data.
Setting [10] is: single s.c. administration of 1 g 1-MT, n=3.
[11] abbreviates: endogenous TRP, 12 h after the final s.c. injection of 1-MT.
Where [12] appears, read: endogenous TRP, all four animals.

Like-named read-outs stand apart in the source and are kept apart here.

`Cn1cc(C[C@H](N)C(=O)O)c2ccccc21` [1-MT, 1-methyl-L-tryptophan]: in data set [1], the maximum tolerated dose is given as 1.6 g/day. The “steady state of plasma trough concentrations” value in data set [2] (1 g 1-MT s.c. daily for five days) is recorded as “steady state conditions of trough values were reached after two subcutaneous administrations”. Further, in data set [2] (12 h after the final of five daily s.c. injections), the “1-MT concentrations in peripheral tissues” value was 48–152 nmol/g wet tissue weight. Besides, in data set [2] (setting [7]), the “1-MT concentration in kidney and liver” value is given as “greater than 100 nmol/g wet tissue weight”; the “1-MT concentration in the different brain areas” value was “lower than 20 nmol/g wet tissue weight”. In addition, the concentration at 12 h in data set [2] (setting [8]) was determined as 38 µM. The “share of 1-MT accumulated in organs derived from contamination with blood” value in data set [2] (estimated from plasma 1-MT and organ blood volumes (32-408 µl/g)) was “less than 5%”. For the same compound, in data set [3], the excreted via feces is listed as 13% and the excreted via urine is listed as 35%. For the same compound, the tolerability result in data set [4] was “well tolerated, with no toxic effects”. In addition, the “bound to plasma proteins” value with plasma proteins was “less than 15%”. In data set [5] (setting [8]), the AUC(0-t) came out at 960 ± 346 µM·h, the Tmax stood at 12 h and the concentration at 24 h was 21.1 ± 5.3 µM. Moreover, in data set [5] (German Landrace, pig, plasma, sc, 1 g, Cmax, maximum concentration in pigs plasma, single s.c. administration of 1 g 1-MT, n=3), the Cmax came to 29.1 ± 8 µM. Further, the half-life in data set [5] (German Landrace, pig, plasma, sc, 1 g, T1/2, half-life, single s.c. administration of 1 g 1-MT, n=3) was 10.9 ± 2 h. In data set [5] (setting [9]), this compound yielded a kabsorption of 0.08 min⁻¹, a kelimination of 0.001 min⁻¹ and a krelease of 0.0018 min⁻¹. Also, the Cmax in data set [5] (read-out: Cmax, maximum concentration in pigs plasma, single s.c. administration of 1 g 1-MT, n=3) was 29.1 ± 7.97 µM. In data set [5] (setting [10]), the “T1/2, half-life” value is reported as 10.93 ± 2.03 h and the “k, first-order kinetic rate constant” value worked out at 0.065 ± 0.011 h⁻¹. Also, the daily feed uptake in data set [6] (five daily s.c. administrations of 1 g 1-MT, not different from MYR (P = 0.97)) is 0.66 ± 0.02 kg. In addition, in data set [6] (five-day period of 1-MT administration), the fever response entry is “no fever response”. The “health status after a single s.c. injection” value in data set [6] (single s.c. 1 g 1-MT, visual inspection twice daily) is given as “No impairment of the health status could be observed”.
In the case of `N[C@@H](Cc1c[nH]c2ccccc12)C(=O)O` [TRP, tryptophan], in data set [2] (setting [11]), the “TRP concentration in kidney, liver, adrenal gland, spleen, and thyroid gland” value is “greater than 40 nmol/g wet tissue weight”; the “TRP concentration in the other tissues” value is “lower than 30 nmol/g wet tissue”. In data set [5] (setting [12]), the “maximum TRP concentration in plasma over the 7-day period” value was 37.7 µM and the “minimum TRP concentration in plasma over the 7-day period” value is recorded as 13.1 µM. The “average TRP concentration in plasma over the entire 7-day period” value in data set [5] (endogenous TRP, all four animals, after single s.c. 1-MT or MYR) was 22.8 ± 5.1 µM.
